Data taken from patent US20190224166A1, “Compositions and Methods for Treating Muscle Loss” (Augusta University Research Institute, Inc., priority 2018, published 2019).

Tested on: quadriceps muscle
Test: Proteomic analysis of quadriceps muscle of aged mice treated with 1-methyl-D-tryptophan (Table 1, TOPPGENE enrichment)
Assay type: in vivo
Method: Female mice 22 months of age were obtained from the National Institute on Aging and treated with saline (vehicle) or 1-methyl-D-tryptophan (1-MT, Sigma, 452483, lot#MKBZ1441V) at a low dose (10 mg/kg BW) or at a high dose (100 mg/kg BW). Mice were treated daily for 4 weeks. Treatments were administered i.p. with an injection volume of 0.2 ml following IACUC approved procedures. Mice were euthanized by CO2 overdose and muscles harvested for analysis. One quadriceps muscle was snap frozen for proteomics and the other quadriceps muscle fixed in buffered formalin for paraffin embedding and trichrome staining. The tibialis anterior was placed in PBS for amplex red assay.
The IDO inhibitor, 1-methyl-D-tryptophan, blocks kynurenine production and reduces levels of ROS in muscle.

## Cn1cc(C[C@@H](N)C(=O)O)c2ccccc21 [1MT]
A2AN08, GN = Ubr4
  1MT vs Control: E3 ubiquitin-protein ligase UBR4: 0.5
E9PZQ0, GN = Ryr1
  1MT vs Control: Ryanodine receptor 1: 0.6614
O08528, GN = Hk2
  1MT vs Control: Hexokinase-2: 0.3158
O08709, GN = Prdx6
  1MT vs Control: Peroxiredoxin-6: 0.7083
O08749, GN = Dld
  1MT vs Control: Dihydrolipoyl dehydrogenase, mitochondrial: 0.8444
O09061, GN = Psmb1
  1MT vs Control: Proteasome subunit beta type-1: 0.5556
O09165, GN = Casq1
  1MT vs Control: Calsequestrin-1: 0.9036
O35855, GN = Bcat2
  1MT vs Control: Branched-chain-amino-acid aminotransferase, mitochondrial: 0.5
O54724, GN = Ptrf
  1MT vs Control: Polymerase I and transcript release factor: 0.9
O55126, GN = Gbas
  1MT vs Control: Protein NipSnap homolog 2: 0.5294
O70250, GN = Pgam2
  1MT vs Control: Phosphoglycerate mutase 2: 0.8457
O70578, GN = Cacng1
  1MT vs Control: Voltage-dependent calcium channel gamma-1 subunit: 0.75
O70622, GN = Rtn2
  1MT vs Control: Reticulon-2: 0.3
O88990, GN = Actn3
  1MT vs Control: Alpha-actinin-3: 0.8638
P01027, GN = C3
  1MT vs Control: Complement C3: 0.5294
P01942, GN = Hba
  1MT vs Control: Hemoglobin subunit alpha: 0.5714
P02088, GN = Hbb-b1
  1MT vs Control: Hemoglobin subunit beta-1: 0.688
P04247, GN = Mb
  1MT vs Control: Myoglobin: 0.381
P05201, GN = Got1
  1MT vs Control: Aspartate aminotransferase, cytoplasmic: 0.8115
P05202, GN = Got2
  1MT vs Control: Aspartate aminotransferase, mitochondrial: 0.6944
P05977, GN = Myl1
  1MT vs Control: Myosin light chain 1/3, skeletal muscle isoform: 0.7007
P06745, GN = Gpi
  1MT vs Control: Glucose-6-phosphate isomerase: 0.8424
P07724, GN = Alb
  1MT vs Control: Serum albumin: 0.8778
P07759, GN = Serpina3k
  1MT vs Control: Serine protease inhibitor A3K: 0.5238
P08249, GN = Mdh2
  1MT vs Control: Malate dehydrogenase, mitochondrial: 0.915
P09671, GN = Sod2
  1MT vs Control: Superoxide dismutase [Mn], mitochondrial: 0.45
P10630, GN = Eif4a2
  1MT vs Control: Eukaryotic initiation factor 4A-II: 0.6
P10639, GN = Txn
  1MT vs Control: Thioredoxin: 0.6154
P11404, GN = Fabp3
  1MT vs Control: Fatty acid-binding protein, heart: 0.6667
P11798, GN = Camk2a
  1MT vs Control: Calcium/calmodulin-dependent protein kinase type II subunit alpha: 0.4444
P12367, GN = Prkar2a
  1MT vs Control: cAMP-dependent protein kinase type II-alpha regulatory subunit: 0.8333
P14152, GN = Mdh1
  1MT vs Control: Malate dehydrogenase, cytoplasmic: 0.7895
P14602, GN = Hspb1
  1MT vs Control: Heat shock protein beta-1: 0.5385
P14824, GN = Anxa6
  1MT vs Control: Annexin A6: 0.7045
P17563, GN = Selenbp1
  1MT vs Control: Selenium-binding protein 1: 0.625
P18242, GN = Ctsd
  1MT vs Control: Cathepsin D: 0.8
P19157, GN = Gstp1
  1MT vs Control: Glutathione S-transferase P 1: 0.7436
P20108, GN = Prdx3
  1MT vs Control: Thioredoxin-dependent peroxide reductase, mitochondrial: 0.6875
P24527, GN = Lta4h
  1MT vs Control: Leukotriene A-4 hydrolase: 0.6667
P24549, GN = Aldh1a1
  1MT vs Control: Retinal dehydrogenase 1: 0.375
P26443, GN = Glud1
  1MT vs Control: Glutamate dehydrogenase 1, mitochondrial: 0.75
P26516, GN = Psmd7
  1MT vs Control: 26S proteasome non-ATPase regulatory subunit 7: 0.8333
P28650, GN = Adssl1
  1MT vs Control: Adenylosuccinate synthetase isozyme 1: 0.8583
P32848, GN = Pvalb
  1MT vs Control: Parvalbumin alpha: 0.7209
P35486, GN = Pdha1
  1MT vs Control: Pyruvate dehydrogenase E1 component subunit alpha, somatic form, mitochondrial: 0.5714
P35700, GN = Prdx1
  1MT vs Control: Peroxiredoxin-1: 0.9138
P38647, GN = Hspa9
  1MT vs Control: Stress-70 protein, mitochondrial: 0.4
P42125, GN = Eci1
  1MT vs Control: Enoyl-CoA delta isomerase 1, mitochondrial: 0.3333
P45952, GN = Acadm
  1MT vs Control: Medium-chain specific acyl-CoA dehydrogenase, mitochondrial: 0.75
P47934, GN = Crat
  1MT vs Control: Carnitine O-acetyltransferase: 0.3913
P48962, GN = Slc25a4
  1MT vs Control: ADP/ATP translocase 1: 0.4561
P51174, GN = Acadl
  1MT vs Control: Long-chain specific acyl-CoA dehydrogenase, mitochondrial: 0.3269
P54071, GN = Idh2
  1MT vs Control: Isocitrate dehydrogenase [NADP], mitochondrial: 0.3684
P54822, GN = Adsl
  1MT vs Control: Adenylosuccinate lyase: 0.5172
P55264, GN = Adk
  1MT vs Control: Adenosine kinase: 0.4545
P56480, GN = Atp5b
  1MT vs Control: ATP synthase subunit beta, mitochondrial: 0.6321
P57776, GN = Eef1d
  1MT vs Control: Elongation factor 1-delta: 0.8
P61982, GN = Ywhag
  1MT vs Control: 14-3-3 protein gamma: 0.5417
P62141, GN = Ppp1cb
  1MT vs Control: Serine/threonine-protein phosphatase PP1-beta catalytic subunit: 0.2857
P62897, GN = Cycs
  1MT vs Control: Cytochrome c, somatic: 0.7778
P62960, GN = Ybx1
  1MT vs Control: Nuclease-sensitive element-binding protein 1: 0.6
P62962, GN = Pfn1
  1MT vs Control: Profilin-1: 0.8333
P63038, GN = Hspd1
  1MT vs Control: 60 kDa heat shock protein, mitochondrial: 0.2222
P63242, GN = Eif5a
  1MT vs Control: Eukaryotic translation initiation factor 5A-1: 0.8936
P68040, GN = Gnb2l1
  1MT vs Control: Guanine nucleotide-binding protein subunit beta-2-like 1: 0.8889
P70349, GN = Hint1
  1MT vs Control: Histidine triad nucleotide-binding protein 1: 0.8667
P70404, GN = Idh3g
  1MT vs Control: Isocitrate dehydrogenase [NAD] subunit gamma 1, mitochondrial: 0.4286
P70695, GN = Fbp2
  1MT vs Control: Fructose-1,6-bisphosphatase isozyme 2: 0.6078
P97355, GN = Sms
  1MT vs Control: Spermine synthase: 0.5455
P97443, GN = Smyd1
  1MT vs Control: Histone-lysine N-methyltransferase Smyd1: 0.8143
P97457, GN = Mylpf
  1MT vs Control: Myosin regulatory light chain 2, skeletal muscle isoform: 0.6453
P97807, GN = Fh
  1MT vs Control: Fumarate hydratase, mitochondrial: 0.7414
P97823, GN = Lypla1
  1MT vs Control: Acyl-protein thioesterase 1: 0.5
P99027, GN = Rplp2
  1MT vs Control: 60S acidic ribosomal protein P2: 0.7143
Q1XH17, GN = Trim72
  1MT vs Control: Tripartite motif-containing protein 72: 0.9048
Q3TMH2, GN = Scrn3
  1MT vs Control: Secernin-3: 0.6667
Q3TMP8, GN = Tmem38a
  1MT vs Control: Trimeric intracellular cation channel type A: 0.6923
Q3V1D3, GN = Ampd1
  1MT vs Control: AMP deaminase 1: 0.86
Q6P5E4, GN = Uggt1
  1MT vs Control: UDP-glucose: glycoprotein glucosyltransferase 1: 0.2857
Q6P8J7, GN = Ckmt2
  1MT vs Control: Creatine kinase S-type, mitochondrial: 0.3977
Q6PIE5, GN = Atp1a2
  1MT vs Control: Sodium/potassium-transporting ATPase subunit alpha-2: 0.5143
Q8BH59, GN = Slc25a12
  1MT vs Control: Calcium-binding mitochondrial carrier protein Aralar1: 0.3939
Q8BH64, GN = Ehd2
  1MT vs Control: EH domain-containing protein 2: 0.5714
Q8BMF4, GN = Dlat
  1MT vs Control: Dihydrolipoyllysine-residue acetyltransferase component of pyruvate dehydrogenase complex, mitochondrial: 0.6053
Q8BMS1, GN = Hadha
  1MT vs Control: Trifunctional enzyme subunit alpha, mitochondrial: 0.561
Q8BU30, GN = Iars
  1MT vs Control: Isoleucine--tRNA ligase, cytoplasmic: 0.75
Q8BZA9, GN = Tigar
  1MT vs Control: Fructose-2,6-bisphosphatase TIGAR: 0.6944
Q8CI51, GN = Pdlim5
  1MT vs Control: PDZ and LIM domain protein 5: 0.6667
Q8K2B3, GN = Sdha
  1MT vs Control: Succinate dehydrogenase [ubiquinone] flavoprotein subunit, mitochondrial: 0.7037
Q8K010, GN = Oplah
  1MT vs Control: 5-oxoprolinase: 0.75
Q8QZT1, GN = Acat1
  1MT vs Control: Acetyl-CoA acetyltransferase, mitochondrial: 0.9231
Q8R429, GN = Atp2a1
  1MT vs Control: Sarcoplasmic/endoplasmic reticulum calcium ATPase 1: 0.9045
Q8VCT4, GN = Ces1d
  1MT vs Control: Carboxylesterase 1D: 0.8571
Q8VEM8, GN = Slc25a3
  1MT vs Control: Phosphate carrier protein, mitochondrial: 0.3333
Q8VHN7, GN = Gpr98
  1MT vs Control: G-protein coupled receptor 98: 0.6667
Q9CQ62, GN = Decr1
  1MT vs Control: 2,4-dienoyl-CoA reductase, mitochondrial: 0.375
Q9CWJ9, GN = Atic
  1MT vs Control: Bifunctional purine biosynthesis protein PURH: 0.8571
Q9CZ13, GN = Uqcrc1
  1MT vs Control: Cytochrome b-c1 complex subunit 1, mitochondrial: 0.25
Q9CZU6, GN = Cs
  1MT vs Control: Citrate synthase, mitochondrial: 0.5333
Q9D0K2, GN = Oxct1
  1MT vs Control: Succinyl-CoA: 3-ketoacid coenzyme A transferase 1, mitochondrial: 0.75
Q9D1A2, GN = Cndp2
  1MT vs Control: Cytosolic non-specific dipeptidase: 0.8
Q9D1G3, GN = Hhatl
  1MT vs Control: Protein-cysteine N-palmitoyltransferase HHAT-like protein: 0.4545
Q9D2G2, GN = Dlst
  1MT vs Control: Dihydrolipoyllysine-residue succinyltransferase component of 2-oxoglutarate dehydrogenase complex, mitochondrial: 0.4857
Q9D7G0, GN = Prps1
  1MT vs Control: Ribose-phosphate pyrophosphokinase 1: 0.8723
Q9D8E6, GN = Rpl4
  1MT vs Control: 60S ribosomal protein L4: 0.6667
Q9D051, GN = Pdhb
  1MT vs Control: Pyruvate dehydrogenase E1 component subunit beta, mitochondrial: 0.6279
Q9DAK9, GN = Phpt1
  1MT vs Control: 14 kDa phosphohistidine phosphatase: 0.75
Q9DB77, GN = Uqcrc2
  1MT vs Control: Cytochrome b-c1 complex subunit 2, mitochondrial: 0.3958
Q9DBB8, GN = Dhdh
  1MT vs Control: Trans-1,2-dihydrobenzene-1,2-diol dehydrogenase: 0.8333
Q9DCW4, GN = Etfb
  1MT vs Control: Electron transfer flavoprotein subunit beta: 0.5
Q9EQ20, GN = Aldh6a1
  1MT vs Control: Methylmalonate-semialdehyde dehydrogenase [acylating], mitochondrial: 0.65
Q9JMA1, GN = Usp14
  1MT vs Control: Ubiquitin carboxyl-terminal hydrolase 14: 0.8
Q9QUR6, GN = Prep
  1MT vs Control: Prolyl endopeptidase: 0.5
Q9QXS1, GN = Plec
  1MT vs Control: Plectin: 0.4894
Q9QY76, GN = Vapb
  1MT vs Control: Vesicle-associated membrane protein-associated protein B: 0.5333
Q9R0P3, GN = Esd
  1MT vs Control: S-formylglutathione hydrolase: 0.8929
Q9R1P4, GN = Psma1
  1MT vs Control: Proteasome subunit alpha type-1: 0.375
Q9WUB3, GN = Pygm
  1MT vs Control: Glycogen phosphorylase, muscle form: 0.9185
Q9Z1E4, GN = Gys1
  1MT vs Control: Glycogen [starch] synthase, muscle: 0.6275
Q9Z2I9, GN = Sucla2
  1MT vs Control: Succinyl-CoA ligase [ADP-forming] subunit beta, mitochondrial: 0.52
Q78ZA7, GN = Nap1l4
  1MT vs Control: Nucleosome assembly protein 1-like 4: 0.8571
Q91X72, GN = Hpx
  1MT vs Control: Hemopexin: 0.7391
Q91YT0, GN = Ndufv1
  1MT vs Control: NADH dehydrogenase [ubiquinone] flavoprotein 1, mitochondrial: 0.4
